Results on five compounds are retold here after patent publication US20170260210A1, “METHOD FOR PREPARING MARMYCIN A AND ANALOGUES THEREOF, AND ALSO USES THEREOF” (Centre national de la recherche scientifique, priority 2014, published 2017).

In series [1] the test system is U2OS cells (osteosarcoma cancer line). Kind of series: Cell proliferation/viability assay (CellTiter-Blue) on U2OS cells. It is filed as cell-based. The following applies: Homo sapiens, at 72 hours. On the procedure: (§1) U2OS and A2780 cells purchased from ATCC were held in McCoy's 5A or RPMI 1640 medium respectively, supplemented with 10% foetal bovine serum (FBS)) and 1× Antibiotic-Antimycotic (all from Gibco®) at 37° C. with 5% CO2. Measurement of cell viability was carried out by seeding 2000 cells per well in a 96-well plate. N-Acetyl Cystein (NAC, A9165 Sigma) or Pan-caspase zVAD-FMK inhibitor (550377 by BD pharmingen) were pre-treated for 1 hour or 30 minutes respectively before treatment with Marmycin A. The reagent <<CellTiter-Blue®>> Reagent) (20 μl/well) was added after 24, 48, or 72 treatment hours, and the cells were incubated for one hour before fluorescence detection (560(20)Ex/590(10)Em) on a Perkin Elmer Wallac 1420 Victor2 Microplate Reader.
For orientation: The colour change of resazurin is a common sign of viable cells or microbes.

For series [2], the system named is A2780 cells (ovarian cancer line). Kind of series: Cell proliferation/viability assay (CellTiter-Blue) on A2780 cells. The following applies: Homo sapiens, at 72 hours. It counts as cell-based. The procedure:
as §1

Series [3] deals with HT1080 cells (fibrosarcoma line). Kind of series: Cell viability assay (CellTiter-Blue) on HT1080 cells. It counts as cell-based. On the procedure:
as §1
The same protocol was followed to evaluate cell viability of HT1080 cells in the presence of compound 33 of Example 6 (called Oxamethoxymarmycin), doxorubicin or etoposide.

The test system of series [4] is DNA-damage response (phosphorylation of H2AX on ser139, phosphorylation of P53, induction of P21). Kind of series: Western Blot analysis of DNA-damage response. It is filed as cell-based. The following applies: cells treated as in Example 10. The procedure: The cells treated as indicated in Example 10 were washed twice in PBS and lysed with Laemmli buffer 2×. The cell extracts were brought to the boil for five minutes at 100° C. and quantified with a Nanodrop 2000 device (Thermal Scientific). 100 μg of protein lysate were separated with 4-20% Mini-PROTEAN® TGX Stain-Free™ gel (BioRad) and transferred onto a nitrocellulose membrane (Amersham). Stains were detected with different antibodies such as anti-β-actin (ab8226, Abcam), anti-p62 (610833, BD Transduction Laboratories™), anti-H2AX (PA1-14198, Thermal Scientific), anti-gH2AX (Ser139) (#2577, Cell Signaling), anti-p21, anti-p53 (1C12) (#2524, Cell Signaling), anti-p-p53, anti-LC3B (#2775, Cell Signaling), anti-BID, diluted to 1/1000 in 5% BSA, 0.1% Tween-20/TBS.
For orientation: Immunoblotting shows a protein as a band on a membrane.

Series [5] deals with MDA-MB-231 cells (human breast cancer cells). Kind of series: Cell viability assay (CellTiter-Blue) on MDA-MB-231 cells. It counts as cell-based. On the procedure:
MDA-MB-231 cells (human breast cancer cells) purchased from ATCC were held in McCoy's 5A medium, supplemented with 10% foetal bovine serum (FBS)) and 1× Antibiotic-Antimycotic (all from Gibco®) at 37° C. with 5% CO2.
Cell viability was measured by seeding 2000 cells per well in a 96-well plate. N-Acetyl Cystein (NAC, A9165 Sigma) or Pan-caspase zVAD-FMK inhibitor (550377 from BD pharmingen) were pre-treated for 1 hour or 30 minutes respectively before treatment with the assayed compounds. The reagent <<CellTiter-Blue® Reagent>> (20 μl/well) was added after a treatment time of 24, 48 or 72 hours, and the cells were incubated for one hour before fluorescence detection (560(20)Ex/590(10)Em) on a Perkin Elmer Wallac 1420 Victor2 Microplate Reader.
The assayed compounds were doxorubicin, marmycin A, artesunate, artesumycin and a combination of marmycin A and artesunate (cf. FIG. 9).

Series [6] has as its system HMLER CD24- cancerous stem cell line (HMLER CD44high/CD24low). Kind of series: Cell viability assay on HMLER CD24- cancerous stem cell line. It is filed as cell-based, human. The procedure: (§2) Cell viability: cell viability was assessed using the following protocol:
(§3) Seeding 1000 cells/well in a 96-well plate. The cells were treated for 72 hours. After a treatment time of 72 hours the reagent CellTiter-Blue® Reagent (G8081, Promega) was added and the cells incubated for one hour before recording fluorescence intensities (Excitation, 560/20 nm; Emission, 590/10 nm) using a Perkin Elmer Wallac 1420 Victor2 Microplate Reader.
(§4) Cell culture: the following material was used: saline buffer <<Dulbecco's Phosphate-Buffered Saline>> (14190-094, 500 mL, Gibco), DMEM/F12 (31331-028, 500 mL, Gibco), DMEM high-glucose with UltraGlutamine (BE12-604F/U1, BioWhittaker, Lonza), McCoy's 5A medium (Modified) (26600-023, Gibco), RPMI 1640 with L-glutamine (BE12-702F/U1, BioWhittaker, Lonza), Foetal Bovine Serum—FBS, 10270-106, Gibco), Hydrocortisone (H0888, Sigma), Insulin (10516, Sigma or 19278, Sigma), BD Epidermal growth factor human recombinant (hEGF, 354052, BD Biosciences), PEN-STREP (DE17-602E, BioWhittaker, Lonza), puromycin dihydrochloride (A11138-02, 460 Life Technologies).
The human mammary epithelial cell line was infected with a retrovirus carrying hTERT, SV40 and the oncogenic allele HrasV12, called HMLER CD44high/CD24 low cells, not expressing E-cadherin and Vimentin (reference HMLER CD24low or HMLER CD44+/CD24−), courteously offered by A. Puisieux (INSERM).
(§5) The HMLER CD44^high/CD24^low cells (Cancer stem cells—CSCs), HMLER CD44^high/CD24^high (non-CSCs) were cultured in DMEM/F12 supplemented with 10% FBS, 10 μg/mL insulin, 0.5 μg/mL hydrocortisone, 10 ng/mL hEGF and 0.5 μg/mL of puromycin.

Series [7] concerns HMLER ID2 cancerous cell line. Kind of series: Cell viability assay on HMLER ID2 cancerous cell line. It is filed as cell-based, human. To be noted: HMLER ID2 cells. The procedure: as §2, §3, §4
The line referenced HMLER ID2 is a hTert, SV40, HRasV12 transformed line, isogenic but non-stem.
as §5

The test system of series [8] is lysosomes of U2OS cells. Kind of series: Cell location by fluorescence (LysoTracker DND-22, GFP-Lamp1, DAPI) in U2OS cells. It is filed as cell-based. To be noted: U2OS cells treated 24 hours with 10 μM. The procedure:
U2OS cells cultured to less than 40% confluence were treated for 24 hours with 10 μM of compound unless otherwise indicated. The marker LysoTracker® Blue DND-22 (L7525, Molecular Probes@) was added 30 minutes before fixing. GFP-Lamp1 was transiently transfected following the manufacturer's instructions. To summarise, […] of CellLight® Lysosomes-GFP BacMam 2.0 (C10596, Life Technologies) were mixed with […] of U2OS culture medium and added to each well of a 24-well plate. After overnight incubation (16 hours), the cells were washed and treated with Marmycin A as indicated in Example 9. For analysis by immunofluorescence, the cells were fixed 12 minutes in 2% formaldehyde/PBS, permeabilised 10 min with 0.1% Triton X/PBS and […] for 1 h with 5% BSA, 0.2% Tween-20/PBS (blocking buffer). Cover glasses were incubated with anti-LAMP1, p62, antibodies, diluted to 1/100 in the blocking buffer overnight at 4° C. The cells were then washed 3 times with 0.2% Tween-20/PBS, and incubated as described above with anti-mouse Alexa 488-conjugated secondary antibody (A11029, Invitrogen) diluted to 1/500 in blocking buffer. The cover glasses were washed as described above and mounted with VectaShield® mounting medium for analysis by fluorescence with or without DAPI (Vector Laboratories Ltd). The images were obtained with a Leica microscope […] and analysed with ImageJ software. […]

Series [9] relates to human breast, prostate, lung, colon, ovarian cancer lines and leukaemia. The following applies: cited from earlier work.
The mark [10] stands for this setting: Homo sapiens, HT-1080, at 72 hours.

“Also recorded” adds a separate entry of the source.

What is called IC50 is the concentration that inhibits the measured activity by half. With `COc1cccc2c1C(=O)c1c(O)c3c(c(O)c1C2=O)C[C@@](O)(C(=O)CO)C[C@@H]3O[C@H]1C[C@H](N)[C@H](O)[C@H](C)O1` [doxorubicin, reference compound], the half-maximal inhibitory concentration (IC50) in series [1] came out at 100 nM; in [2], 60 nM; in series [3] (setting [10]), 35 nM. The “DNA-damage response (Western Blot)” value in series [4] was “generates a DNA-damage response”.
In the case of `Cc1ccc2c3c(ccc2c1)C(=O)c1c(ccc2c1NC1(C)CC2O[C@@H](C)[C@@H]1OC(=O)CCC(=O)OC1O[C@@H]2O[C@@]4(C)CC[C@H]5[C@H](C)CC[C@@H]([C@H]1C)[C@@]25OO4)C3=O` (stereo partly drawn) [artesumycin], in [5], the “cytotoxic activity compared with other treatments” value was “higher than that of marmycin A and also higher than that of marmycin A combined with artesunate; also recorded: synergic effect”. The IC50 in series [5] (Homo sapiens, 72 h treatment) was 900 nM; in series [6] (Homo sapiens, HMLER CD24- cancerous stem cells, 72 hours), 100 nM; in [7] (Homo sapiens, 72 hours) it was 98 nM. Further, the cell viability entry is given as “less than 50%” in series [5] (concentration of 0.9 μm); “about 18%” in [6] (HMLER CD24- cells, concentration of 1 μm, 72 hours); “about 44%” in series [7] (concentration of 0.1 μm, 72 hours). The “cytotoxic activity compared with artesunate” value in series [6] (HMLER CD24- cells) and in [7] was “higher than that of artesunate” throughout. The cell location result in series [8] is reported as “accumulates in the lysosomes”.
Oxamethoxymarmycin had an IC50 in [3] (at 72 hours) of 75000 nM.
For the compound `COc1cc([C@@H]2c3cc4c(cc3[C@@H](O[C@@H]3O[C@@H]5CO[C@@H](C)O[C@H]5[C@H](O)[C@H]3O)[C@H]3COC(=O)[C@H]23)OCO4)cc(OC)c1O` [etoposide], half-maximal inhibition in series [3] (setting [10]) (IC50) was put at 500 nM.
`Cc1ccc2c3c(ccc2c1)C(=O)c1c(ccc2c1NC1(C)CC2O[C@@H](C)[C@@H]1O)C3=O` (stereo partly drawn) [marmycin A]: the results for the IC50 in [1] and in series [2] were 10300 nM and 9800 nM, respectively. In addition, the cell location entry in series [8] is given as “not located at the cell nucleus but at the site of the lysosomes; also recorded: accumulates in the lysosomes”. In [4], the “DNA-damage response (Western Blot)” value is “only scarcely damages caspase-dependent DNA”. The cytotoxic properties entry in series [9] is given as “cytotoxic properties”.
